Reference: ChEMBL document CHEMBL4425112, “1,2-Benzisothiazole Derivatives Bearing 4-, 5-, or 6-Alkyl/arylcarboxamide Moieties Inhibit Carbonic Anhydrase Isoform IX (CAIX) and Cell Proliferation under Hypoxic Conditions” (J Med Chem, 2016)

Legend:
[1] = target: Carbonic anhydrase 1 (Homo sapiens, UniProt P00915)
Description: Inhibition of human carbonic anhydrase 1 preincubated for 15 mins by stopped flow CO2 hydration assay

[2] = target: Carbonic anhydrase 9 (Homo sapiens, UniProt Q16790); assay: Inhibition of human carbonic anhydrase 9 catalytic site preincubated for 15 mins by stopped flow CO2 hydration assay
[3] = target: Carbonic anhydrase 2 (Homo sapiens, UniProt P00918)
Description: Inhibition of human carbonic anhydrase 2 preincubated for 15 mins by stopped flow CO2 hydration assay

[4] = system: HT-29; assay: Antiproliferative activity against human HT-29 cells assessed as reduction in cell viability after 72 hrs by cell counter method; type: cell-based; conditions: HT-29, 72 h
[5] = Toxicity in nude mouse xenografted with human HT-29 cells assessed as weight loss at 25 to 50 mg/kg, ip administered qd measured after 16 days; type: organism-based; conditions: in vivo, 384 h
[6] = Toxicity in nude mouse xenografted with human HT-29 cells assessed as clinical toxicity at 25 to 50 mg/kg, ip administered qd measured after 16 days; type: organism-based; conditions: in vivo, 384 h
[7] = target: Carbonic anhydrase 7 (Homo sapiens, UniProt P43166); assay: Inhibition of human carbonic anhydrase 7 preincubated for 15 mins by stopped flow CO2 hydration assay
[8] = system: HT-29; assay: Synergistic cytotoxicity in human HT-29 cells assessed as dose reduction index ratio in presence of CoCl2-induced hypoxic conditions measured at 70 % cell growth inhibition after 72 hrs in presence of compound-5c by cell counter method; type: functional
[9] = system: HT-29; assay: Synergistic cytotoxicity in human HT-29 cells assessed as dose reduction index ratio in presence of CoCl2-induced hypoxic conditions measured at 90 % cell growth inhibition after 72 hrs in presence of compound-5c by cell counter method; type: functional
[10] = system: HT-29; assay: Synergistic cytotoxicity in human HT-29 cells assessed as dose reduction index ratio in presence of CoCl2-induced hypoxic conditions measured at 80 % cell growth inhibition after 72 hrs in presence of compound-5c by cell counter method; type: functional

Chain of Carbonic anhydrase 1 (P00915 whole entry): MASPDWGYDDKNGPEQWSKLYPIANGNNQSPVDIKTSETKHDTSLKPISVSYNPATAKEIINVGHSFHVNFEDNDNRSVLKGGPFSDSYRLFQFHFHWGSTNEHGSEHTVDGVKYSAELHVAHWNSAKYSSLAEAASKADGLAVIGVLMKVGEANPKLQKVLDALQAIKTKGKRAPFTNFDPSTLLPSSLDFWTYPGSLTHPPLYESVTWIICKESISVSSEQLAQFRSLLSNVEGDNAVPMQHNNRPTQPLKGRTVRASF
Chain of Carbonic anhydrase 7 (P43166 whole entry): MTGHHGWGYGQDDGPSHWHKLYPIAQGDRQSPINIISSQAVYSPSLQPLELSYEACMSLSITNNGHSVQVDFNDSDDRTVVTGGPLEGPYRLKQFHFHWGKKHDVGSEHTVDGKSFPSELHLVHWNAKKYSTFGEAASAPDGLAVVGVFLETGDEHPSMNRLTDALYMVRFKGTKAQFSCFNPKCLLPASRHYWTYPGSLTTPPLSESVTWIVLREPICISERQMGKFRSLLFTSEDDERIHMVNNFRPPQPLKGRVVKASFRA

| SMILES | Ki [1] | Ki [2] | Ki [3] | further results |
| --- | --- | --- | --- | --- |
| O=C(Nc1cccc2c1C(=O)NS2(=O)=O)c1ccc(-c2ccccc2)cc1 | > 50000 nM | 1190 nM | 910 nM |  |
| COc1ccc(C(=O)Nc2ccc3c(c2)C(=O)NS3(=O)=O)cc1 |  | 74 nM | 790 nM |  |
| O=C(Nc1cccc2c1C(=O)NS2(=O)=O)c1ccccc1 | > 50000 nM | 223 nM | 184 nM |  |
| COc1ccc(C(=O)Nc2ccc3c(c2)S(=O)(=O)NC3=O)cc1 | > 50000 nM | 205 nM | 6940 nM |  |
| O=C(Nc1ccc2c(c1)C(=O)NS2(=O)=O)c1cccc(Br)c1 |  | 31.5 nM | 3930 nM |  |
| O=C(Nc1ccc2c(c1)S(=O)(=O)NC2=O)c1ccc(F)cc1 | > 50000 nM | 543 nM | 908 nM |  |
| O=C(Nc1ccc2c(c1)C(=O)NS2(=O)=O)c1ccc(-c2ccccc2)cc1 | > 50000 nM | 231 nM | 82.9 nM |  |
| O=C(Nc1ccc2c(c1)S(=O)(=O)NC2=O)c1cccc(Cl)c1 | > 50000 nM | 233 nM | 6020 nM |  |
| Cc1ccc(C(=O)Nc2ccc3c(c2)S(=O)(=O)NC3=O)cc1 | > 50000 nM | 539 nM | 411 nM |  |
| O=C(Nc1ccc2c(c1)C(=O)NS2(=O)=O)c1cccc(Cl)c1 |  | 67.9 nM | 589 nM | IC50 [4]: > 100000 nM; Activity [5]: Non-Toxic; Activity [6]: Non-Toxic |
| O=C(Nc1ccc2c(c1)C(=O)NS2(=O)=O)c1ccc(F)cc1 |  | 27.2 nM | 6880 nM |  |
| O=C(Nc1cccc2c1C(=O)NS2(=O)=O)c1cccc(Br)c1 |  | 31.2 nM | 593 nM | IC50 [4]: > 100000 nM; Ki [7]: > 50000 nM |
| O=C(Nc1ccc2c(c1)S(=O)(=O)NC2=O)c1ccccc1 | > 50000 nM | 220 nM | 7270 nM |  |
| O=C(Nc1ccc2c(c1)S(=O)(=O)NC2=O)c1ccc(Cl)cc1 | > 50000 nM | 1920 nM | 4670 nM |  |
| O=C(Nc1ccc2c(c1)C(=O)NS2(=O)=O)c1ccc(Cl)cc1 | > 50000 nM | 86.2 nM | 2300 nM |  |
| O=C(Nc1ccc2c(c1)S(=O)(=O)NC2=O)c1cccc(Br)c1 | > 50000 nM | 665 nM | 837 nM |  |
| CC(=O)Nc1ccc2c(c1)C(=O)NS2(=O)=O |  | 30.4 nM | 1480 nM | IC50 [4]: > 100000 nM; Ki [7]: > 50000 nM |
| CCc1c2c(nc3ccc(O)cc13)-c1cc3c(c(=O)n1C2)COC(=O)[C@]3(O)CC [7-ETHYL-10-HYDROXYCAMPTOTHECIN] |  |  |  | Ratio [8]: 0.866; Ratio [9]: 7.395; Ratio [10]: 2.039 |
| O=c1[nH]cc(F)c(=O)[nH]1 [FLUOROURACIL] |  |  |  | Ratio [8]: 5.017; Ratio [9]: 89.952; Ratio [10]: 15.884 |
